The source of these data is ChEMBL document CHEMBL3351704, “Synthesis and biological evaluation of 4-oxoquinoline-3-carboxamides derivatives as potent anti-fibrosis agents” (Bioorg Med Chem Lett, 2014).

Calls of active or inactive are those of the source. No cut-off for these calls is given here.

The subject of assay [1] is NRK-49F. Kind of assay: Inhibition of TGF-beta1-induced total collagen accumulation in rat NRK-49F cells at 10 uM. In kind it is functional.
A further assay concerns RAW264.7. Kind of assay: Inhibition of LPS-induced TNFalpha production in mouse RAW264.7 cells 10 uM. The format is functional.
In assay [2] the test system is NRK-49F. Description: Inhibition of TGF-beta1-induced total collagen accumulation in rat NRK-49F cells. The format is functional, cell-based.
Assay [3] deals with NRK-49F. Kind of assay: Inhibition of TGF-beta1-induced total collagen accumulation in rat NRK-49F cells at 3 uM by picro-sirius red staining method. The format is functional, cell-based.
Assay [4] has as its system NRK-49F. Kind of assay: Inhibition of TGF-beta1-induced total collagen accumulation in rat NRK-49F cells at 5 uM by picro-sirius red staining method. The format is functional, cell-based.
In assay [5] the test system is Mus musculus. Description: Anti-fibrotic activity in mouse bleomycin-induced lung fibrosis model assessed as reduction in leukocytes in bronchoalveolar lavage fluid at 20 mg/kg/day, ip before bleomycin injection. The format is functional. To be noted: route intraperitoneal.
Assay [6] relates to Mus musculus. Description: Anti-fibrotic activity in mouse bleomycin-induced lung fibrosis model assessed as reduction in lymphocytes in bronchoalveolar lavage fluid at 20 mg/kg/day, ip before bleomycin injection. In kind it is functional. To be noted: route intraperitoneal.
Assay [7] has as its system Mus musculus. Kind of assay: Anti-fibrotic activity in mouse bleomycin-induced lung fibrosis model assessed as reduction in hydroxyproline level at 20 mg/kg/day, ip before bleomycin injection. In kind it is functional.
Assay [8] relates to Mus musculus. Description: Anti-fibrotic activity in mouse bleomycin-induced lung fibrosis model assessed as reduction in neutrophils in bronchoalveolar lavage fluid at 20 mg/kg/day, ip before bleomycin injection. The format is functional. To be noted: route intraperitoneal.
In assay [9] the test system is Mus musculus. Kind of assay: Anti-fibrotic activity in mouse bleomycin-induced lung fibrosis model assessed as reduction in lung injury at 20 mg/kg/day, ip before bleomycin injection by H and E staining. The format is functional, organism-based.
For assay [10], the system named is Mus musculus. Description: Anti-fibrotic activity in mouse bleomycin-induced lung fibrosis model assessed as reduction of lung collagen deposition at 20 mg/kg/day, ip before bleomycin injection by H and E staining. The format is functional, organism-based.
For assay [11], the system named is Mus musculus. Kind of assay: Anti-fibrotic activity in mouse bleomycin-induced lung fibrosis model assessed as cumulative proportion of survival at 20 mg/kg/day, ip before bleomycin injection measured on day 28. In kind it is functional. To be noted: 672 h, route intraperitoneal.
For assay [12], the system named is Mus musculus. Kind of assay: Anti-fibrotic activity in mouse bleomycin-induced lung fibrosis model assessed as reduction in inflammatory infiltrate level at 20 mg/kg/day, ip before bleomycin injection by H and E staining. In kind it is functional, organism-based.
Assay [13] has as its system Mus musculus. Kind of assay: Anti-fibrotic activity in mouse bleomycin-induced lung fibrosis model assessed as slowing of body weight loss at 20 mg/kg/day, ip before bleomycin injection measured on day 28. In kind it is functional, organism-based.

As to `CC(C)(C)c1ccc2[nH]cc(C(=O)Nc3cc(O)c(C(C)(C)C)cc3C(C)(C)C)c(=O)c2c1`, at 10 µM the inhibition with NRK-49F [1] was 73.8%. Moreover, the “inhibition (INH)” value with RAW264.7 amounted to 45.7%.

The molecule `Cc1ccc(NC(=O)c2c[nH]c3ccc(C(C)(C)C)cc3c2=O)cc1` had an inhibition at 10 µM in the assay on NRK-49F [1] of 28.9%.

As to `CC(C)(C)c1ccc(NC(=O)c2cn(CCN3CCCC3)c3ccc(C(C)(C)C)cc3c2=O)cc1`, 10 µM produced 44.8% inhibition in the assay with NRK-49F [1].

Molecule `CC(C)(C)c1ccc(NC(=O)c2cn(CCN3CCOCC3)c3ccc(C(C)(C)C)cc3c2=O)cc1` displayed an IC50 in the assay on NRK-49F [2] of 2300 nM. For the same molecule, at 10 µM the inhibition with NRK-49F [1] was 71.1%. Moreover, the “inhibition (INH)” value in the assay with RAW264.7 is listed as 69.5%. In addition, the inhibition entry with NRK-49F [3] and with NRK-49F [4] was “Active” in each case.

Regarding `CC(C)(C)c1ccc(NC(=O)c2cn(CCN3CCCCC3)c3ccc(C(C)(C)C)cc3c2=O)cc1`, in the assay with NRK-49F [1], the inhibition at 10 µM amounted to 30.1%.

In turn, `CC(C)(C)c1ccc2[nH]cc(C(=O)Nc3ccc(C(C)(C)C)c([N+](=O)[O-])c3)c(=O)c2c1` came in with an inhibition at 10 µM with NRK-49F [1] of 75.7%. For the same molecule, the “inhibition (INH)” value in the assay with RAW264.7 was found to be 47.7%.

Consider `COc1ccccc1NC(=O)c1c[nH]c2ccc(C(C)(C)C)cc2c1=O`, for which, in the assay with NRK-49F [1], the inhibition at 10 µM was 47.9%.

Regarding `CCCCn1cc(C(=O)Nc2ccc(C(C)(C)C)cc2)c(=O)c2cc(C(C)(C)C)ccc21`, in the assay with NRK-49F [1], the inhibition at 10 µM stood at 16.9%.

In the assay with NRK-49F [1], `Cc1ccc2[nH]cc(C(=O)Nc3cc(O)c(C(C)(C)C)cc3C(C)(C)C)c(=O)c2c1` yielded an inhibition at 10 µM of 49.9%.

Regarding `CC(C)(C)c1ccc(NC(=O)c2cn(CCCl)c3ccc(C(C)(C)C)cc3c2=O)cc1`, testing at 10 µM with NRK-49F [1] gave an inhibition of 35.8%.

With `CCn1cc(C(=O)Nc2ccc(C(C)(C)C)cc2)c(=O)c2cc(C(C)(C)C)ccc21`, the inhibition at 10 µM with NRK-49F [1] was determined as 34.3%.

In the assay on NRK-49F [2], `CC(C)(C)c1ccc2[nH]cc(C(=O)Nc3ccc(C(C)(C)C)c(N)c3)c(=O)c2c1` displayed an IC50 of 4100 nM. This molecule gave an inhibition at 10 µM with NRK-49F [1] of 67.9%. Moreover, the “inhibition (INH)” value in the assay on RAW264.7 is listed as 71.3%. Moreover, the inhibition entry in the assay with NRK-49F [3] is “Active”.

`CC(C)(C)c1ccc2[nH]cc(C(=O)Nc3cccc(Cl)c3)c(=O)c2c1` showed an inhibition at 10 µM in the assay with NRK-49F [1] of 30.5%.

On to `CC(C)(C)c1ccc(NC(=O)c2c[nH]c3ccc(C(C)(C)C)cc3c2=O)cc1`, for which the inhibition in vivo at 20 mg/kg/day is 40.3% with Mus musculus [5], 33.6% with Mus musculus [6] and 39.7% in the assay with Mus musculus [8]. Further, the IC50 in the assay on NRK-49F [2] turned out to be 2000 nM. In the assay on NRK-49F [1], this molecule showed an inhibition at 10 µM of 81%. The inhibition entry in the assay with Mus musculus [7] and in the assay on NRK-49F [3] was “Active” in each case. The inhibition entry with Mus musculus [9], in the assay with Mus musculus [10] and in the assay on Mus musculus [12] was “inactive” each time. Further, in the assay on RAW264.7, the “inhibition (INH)” value was determined as 61.6%. Further, in the assay with Mus musculus [11], the survival at 20 mg/kg/day was 83.3%. Further, in the assay on Mus musculus [13], the outcome was Active.

In the assay on NRK-49F [1], `COc1ccc(NC(=O)c2c[nH]c3ccc(C(C)(C)C)cc3c2=O)cc1` yielded an inhibition at 10 µM of 23.5%.

Turning to `CC(C)(C)c1ccc(NC(=O)c2cn(CCCN3CCOCC3)c3ccc(C(C)(C)C)cc3c2=O)cc1`, the inhibition at 10 µM in the assay on NRK-49F [1] is 30.2%.

Consider `CCc1ccc(NC(=O)c2c[nH]c3ccc(C(C)(C)C)cc3c2=O)cc1`, for which 10 µM produced 19.4% inhibition in the assay with NRK-49F [1].

In the case of `COc1cc(NC(=O)c2c[nH]c3ccc(C(C)(C)C)cc3c2=O)cc(OC)c1OC`, the inhibition in vivo at 20 mg/kg/day turned out to be 54.8% with Mus musculus [5], 15.8% in the assay on Mus musculus [6], 52.4% with Mus musculus [7] (route intraperitoneal) and 57.7% in the assay on Mus musculus [8]. The molecule further showed an IC50 with NRK-49F [2] of 2500 nM. Moreover, the inhibition at 10 µM with NRK-49F [1] came out at 77.1%. Besides, the inhibition entry in the assay with Mus musculus [9], in the assay on Mus musculus [10], in the assay on Mus musculus [12], in the assay on NRK-49F [3] and in the assay with NRK-49F [4] was “Active” each time. Also, in the assay with RAW264.7, the “inhibition (INH)” value was 70.8%. The survival at 20 mg/kg/day with Mus musculus [11] came to 72.2%. The outcome in the assay on Mus musculus [13] was Active.

`CC(C)(C)c1ccc2[nH]cc(C(=O)Nc3ccc(F)cc3)c(=O)c2c1` had an inhibition at 10 µM in the assay on NRK-49F [1] of 23.5%.

Molecule `CN1CCN(CCn2cc(C(=O)Nc3ccc(C(C)(C)C)cc3)c(=O)c3cc(C(C)(C)C)ccc32)CC1` had an inhibition at 10 µM in the assay with NRK-49F [1] of 46.6%.

As to `COc1ccc2[nH]cc(C(=O)Nc3cc(O)c(C(C)(C)C)cc3C(C)(C)C)c(=O)c2c1`, the inhibition at 10 µM in the assay with NRK-49F [1] was determined as 53.1%.

On to `CCc1ccc2[nH]cc(C(=O)Nc3cc(O)c(C(C)(C)C)cc3C(C)(C)C)c(=O)c2c1`, for which the inhibition at 10 µM in the assay with NRK-49F [1] was 55.9%.

In the assay with NRK-49F [1], `CC(C)(C)c1cccc(NC(=O)c2c[nH]c3ccc(C(C)(C)C)cc3c2=O)c1` registered an inhibition at 10 µM of 44.8%.

As for `CC(C)(C)c1cc(C(C)(C)C)c(NC(=O)c2c[nH]c3ccccc3c2=O)cc1O` [IVACAFTOR], it took 4000 nM to reach half-maximal inhibition in the assay on NRK-49F [2] (IC50). The same molecule showed an inhibition at 10 µM with NRK-49F [1] of 64.7%. The inhibition entry in the assay with Mus musculus [9], in the assay on Mus musculus [10] and in the assay on Mus musculus [12] was “inactive” in each case. Further, the “inhibition (INH)” value with RAW264.7 is 63.2%.

The molecule `CC(C)(C)c1ccc2[nH]cc(C(=O)Nc3ccc(Cl)cc3)c(=O)c2c1` displayed an inhibition at 10 µM in the assay with NRK-49F [1] of 27.2%.

As to `CC(C)(C)c1ccc2[nH]cc(C(=O)Nc3ccccc3C(C)(C)C)c(=O)c2c1`, the inhibition at 10 µM with NRK-49F [1] came to 54.3%.

With `CN1CCN(CCCn2cc(C(=O)Nc3ccc(C(C)(C)C)cc3)c(=O)c3cc(C(C)(C)C)ccc32)CC1`, the inhibition at 10 µM with NRK-49F [1] came to 52.1%.

In the assay on NRK-49F [1], `CC(C)(C)c1ccc(NC(=O)c2cn(Cc3ccccc3)c3ccc(C(C)(C)C)cc3c2=O)cc1` had an inhibition at 10 µM of 9.1%.

For the molecule `CC(C)(C)c1cc(C(C)(C)C)c(NC(=O)c2c[nH]c3ccc(F)cc3c2=O)cc1O`, in the assay with NRK-49F [1], the inhibition at 10 µM came out at 51.6%.

Regarding `COc1ccc(NC(=O)c2c[nH]c3ccc(C(C)(C)C)cc3c2=O)cc1OC`, the inhibition at 10 µM in the assay with NRK-49F [1] is 32.6%.

As a reminder, the inhibition is the relative decrease from the control value, in per cent. For orientation: IC50 means the concentration that gives 50% inhibition. A higher IC50 goes with lower potency. One may read the inhibition in vivo as the change of the read-out against control, counted positive when it falls.
